{"source": "patent US11311576B2", "about": "“Methods of use for CAR T cells” (Seattle Children's Hospital, priority 2018, dated 2022)", "key": {"OV90": {"tested_on": "OV90", "test": "EC17 dose response, specific lysis in co-culture with E2-CAR-T cells (LDH assay)", "format": "cell-based, human", "conditions": "24 hours co-culture", "description": "(§1) After 24 hours of co-culture, supernatants were harvested to determine tumor cell killing. To study the kinetics of T cell activation and FR correlation in vitro (FIG. 60A, FIG. 60B, FIG. 60C, FIG. 60D, FIG. 60E), co-cultures were carried out in FR+/− cell lines at varying E/T ratios (1:27, 1:9, 1:3, 1:1, 3:1) in the continuous presence of 10 nM EC17. The kinetics of tumor cell killing were quantified after 16 and 48 hours of co-culture. Meanwhile, a portion of the supernatants was taken after 44 hours of co-culture for measurement of IFNg, IL-2 and TNFα. Using Promega's CytoTox 96® LDH assay kit, target cell killing was quantified and expressed as specific lysis (%) which was normalized to basal levels in the absence of EC17 at defined E/T ratios. The LEGENDplex™ human Th1 cytokine panel (BioLegend, San Diego, Calif.) was used to determine CAR-T cell derived cytokines.\n(§2) To study the robustness of CAR-T cell activation, 5 FR+ cell lines (KB, MDA-MB-231, HOS-FRα, THP1-FRβ, OV90) were used along with a wide range of EC17 concentration (0.1 pM to 100 μM) at an E/T ratio of 1:1 (FIG. 59A, FIG. 59B). Specific lysis (%) was quantified by Promega's LDH cytotoxicity assay kit after 24 hours of co25 culture. In all cell lines, EC17-dependent cytolysis followed a bell-shaped dose response with a somewhat broad concentration plateau (˜0.1 nM to […]) (FIG. 59A). […] However, maximal lysis obtained for each cell line ranked differently at 45% (MDA-MB-231), 27% (THP1-FRb), 18% (HOS-FRα), 15% (OV90) and 11% (KB) (FIG. 59B)."}, "THP1-FRβ": {"tested_on": "THP1-FRβ", "test": "EC17 dose response, specific lysis in co-culture with E2-CAR-T cells (LDH assay)", "format": "cell-based, human", "conditions": "24 hours co-culture", "description": "as §1, §2"}, "HOS-FRα": {"tested_on": "HOS-FRα", "test": "EC17 dose response, specific lysis in co-culture with E2-CAR-T cells (LDH assay)", "format": "cell-based, human", "conditions": "24 hours co-culture", "description": "as §1, §2"}, "KB": {"tested_on": "KB", "test": "EC17 dose response, specific lysis in co-culture with E2-CAR-T cells (LDH assay)", "format": "cell-based, human", "conditions": "24 hours co-culture", "description": "as §1, §2"}, "MDA-MB-231": {"tested_on": "MDA-MB-231", "test": "EC17 dose response, specific lysis in co-culture with E2-CAR-T cells (LDH assay)", "format": "cell-based, human", "conditions": "24 hours co-culture", "description": "as §1, §2"}, "FRα (KB)": {"target": "T1, FRα (KB) (Homo sapiens, UniProt P15328)", "T1 construct": "endogenous in cells; host or cells: KB cells (human cervical carcinoma with HeLa markers)", "T1 sequence (P15328 25-234)": "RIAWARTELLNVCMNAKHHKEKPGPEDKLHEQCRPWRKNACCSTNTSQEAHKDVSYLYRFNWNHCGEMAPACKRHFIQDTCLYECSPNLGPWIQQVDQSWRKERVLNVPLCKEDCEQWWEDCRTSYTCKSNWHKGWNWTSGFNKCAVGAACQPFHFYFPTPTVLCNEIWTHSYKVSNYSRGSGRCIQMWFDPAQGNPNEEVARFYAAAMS", "test": "3H-EC17 cell-based radioligand binding assay, KB cells", "conditions": "2 h at 37° C.", "description": "The bispecific affinities of EC17 CAM were assessed using ^3H-EC17 in cell-based radioligand binding assays. For binding to FR+ targets, KB and CHO-β cells were pre-seeded overnight in 24-well tissue culture plates and incubated with 0.1, 0.5, 1, 5, 10, 20, and 40 nM of ^3H-EC17 in FFRPMI for 2 h at 37° C. Afterwards, the cells were rinsed with phosphate-buffered saline (PBS, pH 7.4) and lysed with 1% sodium dodecylsulfate. The whole cell lysates were quantitated for the level of radioactivity and cellular protein content by standard Pierce BCA protein assay. The number of ^3H-EC17 molecules bound per cell was calculated to determine the dissociation constants (Kd) for FRα (KB) and FRβ (CHO-b) respectively (FIG. 56A, FIG. 56B)."}, "[1]": {"conditions": "Homo sapiens, EC17, E/T 1:1, curve fitted up to 100 nM, read-out: half-maximal effective concentration (EC50), specific lysis"}}, "data": [{"compound": "NC1=NC2N=CC(CNc3ccc(C(=O)N[C@@H](CCC(=O)NCCNC(=S)Nc4ccc(-c5c6ccc(=O)cc-6oc6cc(O)ccc56)c(C(=O)O)c4)C(=O)O)cc3)=NC2C(=O)N1", "note": "(some centres unmarked) [EC17, FA-(g)-ethylenediamine-FITC]", "values": [{"measurement": "maximal lysis", "setting": "OV90; E/T 1:1", "value": 15, "unit": "%"}, {"measurement": "EC50", "setting": "OV90; Homo sapiens, OV-90, E/T 1:1, curve fitted up to 100 nM, read-out: half-maximal effective concentration (EC50), specific lysis", "value": 0.418, "unit": "nM"}, {"measurement": "maximal lysis", "setting": "THP1-FRβ; E/T 1:1", "value": 27, "unit": "%"}, {"measurement": "EC50", "setting": "THP1-FRβ; [1]", "value": 0.015, "unit": "nM"}, {"measurement": "maximal lysis", "setting": "HOS-FRα; E/T 1:1", "value": 18, "unit": "%"}, {"measurement": "EC50", "setting": "HOS-FRα; [1]", "value": 0.03, "unit": "nM"}, {"measurement": "maximal lysis", "setting": "KB; E/T 1:1", "value": 11, "unit": "%"}, {"measurement": "EC50", "setting": "KB; Homo sapiens, KB, E/T 1:1, curve fitted up to 100 nM, read-out: half-maximal effective concentration (EC50), specific lysis", "value": 0.0053, "unit": "nM"}, {"measurement": "maximal lysis", "setting": "MDA-MB-231; E/T 1:1", "value": 45, "unit": "%"}, {"measurement": "EC50", "setting": "MDA-MB-231; Homo sapiens, MDA-MB-231, E/T 1:1, curve fitted up to 100 nM, read-out: half-maximal effective concentration (EC50), specific lysis", "value": 0.0045, "unit": "nM"}, {"measurement": "Kd", "setting": "FRα (KB)", "value": 1.7, "unit": "nM"}]}]}
